Reference: EP4562003B1, “NOVEL 7-SUBSTITUTED INDOLE SULFONAMIDE DERIVATIVES” (F. Hoffmann-La Roche AG, priority 2022, dated 2024)

Biological target: human GPR17 short isoform (Homo sapiens, UniProt Q13304)
Experiment: GPR17 cAMP assay (TR-FRET cAMP quantification, antagonist mode)
Assay type: cell-based
Settings: CHO-K1 cells stably expressing human GPR17 short isoform; EC80 of agonist MDL29,951; forskolin 15µM; IBMX 0.5mM; 30 minutes at room temperature; read-out: hGPR17 cAMP IC50
Method: GPR17 cAMP Assay Protocol:
CHO-K1 cells stably expressing vector containing untagged human GPR17 short isoform (Roche) were cultured at 37°C / 5% CO2 in DMEM (Dulbecco's Modified Eagle Medium):F-12 (1:1) supplemented with 10% foetal bovine serum and 400 µg/ml Geneticin.
Changes in intracellular cyclic adenosine monophosphate (cAMP) levels were quantified using the Nano-TRF Detection Assay kit (Roche Diagnostics, Cat. No. 05214386001). This assay allows for direct cAMP quantification in a homogeneous solution. cAMP is detected based on time-resolved fluorescence energy transfer (TR-FRET) and competitive binding of ruthenylated cAMP and endogenous cAMP to an anti-cAMP monoclonal antibody labeled with AlexaFluor-700. The Ruthenium complex serves as the FRET donor and transfers energy to AlexaFluor-700. The FRET signal is inversely proportional to the cAMP concentration.
CHO-GPR17S cells were detached with Accutase and resuspended in assay buffer consisting of Hank's Balanced Salt Solution (HBSS), 10mM HEPES (4-(2-hydroxyethyl) piperazine-1-ethanesulfonic acid solution) and 0.1% bovine serum albumin (pH 7.4). The cells were seeded in black 384-well plates (Corning) at a density of 10'000 cells / 20µl assay buffer until the addition of compounds.
Test antagonist compounds were serially diluted in dimethyl sulfoxide (DMSO) and spotted in 384-well plates. The compounds were then diluted in HBSS buffer supplemented with an EC80 concentration of MDL29,951 (3-(2-Carboxy-4,6-dichloroindol-3-yl)propionic acid) (GPR17 agonist) plus 3-Isobutyl-1-methylxanthine (IBMX) (0.5mM final concentration) and added to the cells at room temperature. Forskolin (15µM final concentration) was added 5 minutes after the test compounds and the cells were incubated at room temperature for 30 minutes. The assay was stopped by adding cAMP detection mix (containing detergents for cell lysis) for 90 minutes at room temperature.
Cellular cAMP was measured using a Paradigm reader (Molecular Devices). The raw data was used to calculate the FRET signal based on the assay's P-factor as per cAMP kit instructions. The data was normalized to the maximal activity of a reference antagonist and dose response curves were fitted to the percent activity of the test compounds using a sigmoidal dose response model (Genedata Screener).
Results in the hGPR17 cAMP assay are provided for compounds of formula I in Table 1 Table 1: […]

Chain of human GPR17 short isoform (Q13304 29-367): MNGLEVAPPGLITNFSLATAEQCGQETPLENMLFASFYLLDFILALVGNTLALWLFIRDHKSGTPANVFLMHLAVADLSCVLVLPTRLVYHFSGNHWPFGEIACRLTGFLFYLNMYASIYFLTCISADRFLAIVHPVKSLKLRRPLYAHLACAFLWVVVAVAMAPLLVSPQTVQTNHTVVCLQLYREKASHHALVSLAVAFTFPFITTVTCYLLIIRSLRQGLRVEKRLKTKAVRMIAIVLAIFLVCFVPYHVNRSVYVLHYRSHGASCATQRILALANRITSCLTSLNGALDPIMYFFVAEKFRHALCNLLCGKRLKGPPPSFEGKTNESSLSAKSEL

Compared with `COc1nc(NS(=O)(=O)c2c[nH]c3c(-c4ncccn4)c(Cl)ccc23)nc(OC)c1OCC(F)F` [Example 1, 6-chloro-N-[5-(2,2-difluoroethoxy)-4,6-dimethoxy-pyrimidin-2-yl]-7-(2-pyrimidyl)-1H-indole-3-sulfonamide], `COc1nc(NS(=O)(=O)c2c[nH]c3c(-c4ncccn4)c(F)ccc23)nc(OC)c1OCC(F)F` [Example 26, N-[5-(2,2-difluoroethoxy)-4,6-dimethoxy-pyrimidin-2-yl]-6-fluoro-7-(2-pyrimidyl)-1H-indole-3-sulfonamide] is 4.5-fold higher in IC50: 0.048 µM for the first, 0.218 µM for the second. The first is the more potent here.

First: COc1nc(NS(=O)(=O)c2c[nH]c3c(-c4ncco4)c(Cl)ccc23)nc(OC)c1OCC(F)F [Example 2, 6-chloro-N-[5-(2,2-difluoroethoxy)-4,6-dimethoxy-pyrimidin-2-yl]-7-oxazol-2-yl-1H-indole-3-sulfonamide]
Second: COc1nc(NS(=O)(=O)c2c[nH]c3c(-c4cocn4)c(Cl)ccc23)nc(OC)c1OCC(F)F [Example 14, 6-chloro-N-[5-(2,2-difluoroethoxy)-4,6-dimethoxy-pyrimidin-2-yl]-7-oxazol-4-yl-1H-indole-3-sulfonamide]
The IC50 of the first is 3.1-fold higher: 0.098 µM for the first, 0.032 µM for the second.

Compared with `COc1nc(NS(=O)(=O)c2c[nH]c3c(-c4ncccn4)c(Cl)ccc23)nc(OC)c1CC(F)F` [Example 3, 6-chloro-N-[5-(2,2-difluoroethyl)-4,6-dimethoxy-pyrimidin-2-yl]-7-(2-pyrimidyl)-1H-indole-3-sulfonamide], `COc1nc(NS(=O)(=O)c2c[nH]c3c(-c4ncccn4)c(F)ccc23)nc(OC)c1CC(F)F` [Example 27, N-[5-(2,2-difluoroethyl)-4,6-dimethoxy-pyrimidin-2-yl]-6-fluoro-7-(2-pyrimidyl)-1H-indole-3-sulfonamide] is 2.6-fold higher in IC50: 0.046 µM for the first, 0.12 µM for the second.

Going from `COc1nc(NS(=O)(=O)c2c[nH]c3c(-c4cccnn4)c(Cl)ccc23)nc(OC)c1OCC(F)F` [Example 4, 6-chloro-N-[5-(2,2-difluoroethoxy)-4,6-dimethoxy-pyrimidin-2-yl]-7-pyridazin-3-yl-1H-indole-3-sulfonamide] to `COc1nc(NS(=O)(=O)c2c[nH]c3c(-c4ccccn4)c(Cl)ccc23)nc(OC)c1OCC(F)F` [Example 19, 6-chloro-N-[5-(2,2-difluoroethoxy)-4,6-dimethoxy-pyrimidin-2-yl]-7-(2-pyridyl)-1H-indole-3-sulfonamide], the IC50 falls from 0.044 µM to 0.018 µM (2.4-fold). The second is the more potent here.

`COc1nc(NS(=O)(=O)c2c[nH]c3c(-c4nccn4C)cccc23)nc(OC)c1CC(F)F` [Example 5, N-[5-(2,2-difluoroethyl)-4,6-dimethoxy-pyrimidin-2-yl]-7-(1-methylimidazol-2-yl)-1H-indole-3-sulfonamide] and `COc1nc(NS(=O)(=O)c2c[nH]c3c(-c4nccn4C)cccc23)nc(OC)c1OCC(F)F` [Example 7, N-[5-(2,2-difluoroethoxy)-4,6-dimethoxy-pyrimidin-2-yl]-7-(1-methylimidazol-2-yl)-1H-indole-3-sulfonamide] are within 1.5-fold of each other in IC50: 0.026 µM for the first, 0.034 µM for the second.

Going from `COc1nc(NS(=O)(=O)c2c[nH]c3c(-c4cccnn4)c(Cl)ccc23)nc(OC)c1CC(F)F` [Example 6, 6-chloro-N-[5-(2,2-difluoroethyl)-4,6-dimethoxy-pyrimidin-2-yl]-7-pyridazin-3-yl-1H-indole-3-sulfonamide] to `COc1nc(NS(=O)(=O)c2c[nH]c3c(-c4ccccn4)c(Cl)ccc23)nc(OC)c1CC(F)F` [Example 18, 6-chloro-N-[5-(2,2-difluoroethyl)-4,6-dimethoxy-pyrimidin-2-yl]-7-(2-pyridyl)-1H-indole-3-sulfonamide], the IC50 falls from 0.042 µM to 0.019 µM (2.2-fold). The second is the more potent here.

Going from `COc1nc(NS(=O)(=O)c2c[nH]c3c(-c4nccn4C)c(Cl)ccc23)nc(OC)c1OCC(F)F` [Example 8, 6-chloro-N-[5-(2,2-difluoroethoxy)-4,6-dimethoxy-pyrimidin-2-yl]-7-(1-methylimidazol-2-yl)-1H-indole-3-sulfonamide] to `COc1nc(NS(=O)(=O)c2c[nH]c3c(-c4nccn4C)c(F)ccc23)nc(OC)c1OCC(F)F` [Example 9, N-[5-(2,2-difluoroethoxy)-4,6-dimethoxy-pyrimidin-2-yl]-6-fluoro-7-(1-methylimidazol-2-yl)-1H-indole-3-sulfonamide], the IC50 rises from 0.039 µM to 0.069 µM (1.8-fold).

`COc1nc(NS(=O)(=O)c2c[nH]c3c(-c4nccn4C)c(F)ccc23)nc(OC)c1CC(F)F` [Example 10, N-[5-(2,2-difluoroethyl)-4,6-dimethoxy-pyrimidin-2-yl]-6-fluoro-7-(1-methylimidazol-2-yl)-1H-indole-3-sulfonamide] and `COc1nc(NS(=O)(=O)c2c[nH]c3c(-c4cnccn4)c(Cl)ccc23)nc(OC)c1CC(F)F` [Example 15, 6-chloro-N-[5-(2,2-difluoroethyl)-4,6-dimethoxy-pyrimidin-2-yl]-7-pyrazin-2-yl-1H-indole-3-sulfonamide] are within 1.5-fold of each other in IC50: 0.03 µM for the first, 0.027 µM for the second.

Compared with `COc1nc(NS(=O)(=O)c2c[nH]c3c(-c4cccnn4)cccc23)nc(OC)c1CC(F)F` [Example 11, N-[5-(2,2-difluoroethyl)-4,6-dimethoxy-pyrimidin-2-yl]-7-pyridazin-3-yl-1H-indole-3-sulfonamide], `COc1nc(NS(=O)(=O)c2c[nH]c3c(-c4cccnn4)cccc23)nc(OC)c1OCC(F)F` [Example 12, N-[5-(2,2-difluoroethoxy)-4,6-dimethoxy-pyrimidin-2-yl]-7-pyridazin-3-yl-1H-indole-3-sulfonamide] is 1.7-fold higher in IC50: 0.05 µM for the first, 0.085 µM for the second. The first is the more potent here.

First: COc1nc(NS(=O)(=O)c2c[nH]c3c(-c4nnccc4C)cccc23)nc(OC)c1OCC(F)F [Example 13, N-[5-(2,2-difluoroethoxy)-4,6-dimethoxy-pyrimidin-2-yl]-7-(4-methylpyridazin-3-yl)-1H-indole-3-sulfonamide]
Second: COc1nc(NS(=O)(=O)c2c[nH]c3c(-c4cnccn4)c(Cl)ccc23)nc(OC)c1OCC(F)F [Example 16, 6-chloro-N-[5-(2,2-difluoroethoxy)-4,6-dimethoxy-pyrimidin-2-yl]-7-pyrazin-2-yl-1H-indole-3-sulfonamide]
The IC50 of the first is 2.3-fold higher: 0.057 µM for the first, 0.025 µM for the second. The second is the more potent here.

Compared with `COc1nc(NS(=O)(=O)c2c[nH]c3c(-c4ncccn4)cccc23)nc(OC)c1CC(F)F` [Example 17, N-[5-(2,2-difluoroethyl)-4,6-dimethoxy-pyrimidin-2-yl]-7-(2-pyrimidyl)-1H-indole-3-sulfonamide], `COc1nc(NS(=O)(=O)c2c[nH]c3c(-c4cnccn4)cccc23)nc(OC)c1CC(F)F` [Example 25, N-[5-(2,2-difluoroethyl)-4,6-dimethoxy-pyrimidin-2-yl]-7-pyrazin-2-yl-1H-indole-3-sulfonamide] is 14-fold lower in IC50: 0.806 µM for the first, 0.056 µM for the second.

`COc1nc(NS(=O)(=O)c2c[nH]c3c(-c4cnccn4)c(Cl)ccc23)nc(OC)c1OC(F)F` [Example 20, 6-chloro-N-[5-(difluoromethoxy)-4,6-dimethoxy-pyrimidin-2-yl]-7-pyrazin-2-yl-1H-indole-3-sulfonamide] and `COc1nc(NS(=O)(=O)c2c[nH]c3c(-c4cnccn4)c(Cl)ccc23)nc(OC)c1OCCF` [Example 21, 6-chloro-N-[5-(2-fluoroethoxy)-4,6-dimethoxy-pyrimidin-2-yl]-7-pyrazin-2-yl-1H-indole-3-sulfonamide] are within 1.5-fold of each other in IC50: 0.032 µM for the first, 0.04 µM for the second.

Compared with `COc1nc(NS(=O)(=O)c2c[nH]c3c(-c4ncccn4)c(Cl)ccc23)nc(OC)c1OCCF` [Example 22, 6-chloro-N-[5-(2-fluoroethoxy)-4,6-dimethoxy-pyrimidin-2-yl]-7-(2-pyrimidyl)-1H-indole-3-sulfonamide], `COc1nc(NS(=O)(=O)c2c[nH]c3c(-c4ncccn4)c(F)ccc23)nc(OC)c1OCCF` [Example 28, 6-fluoro-N-[5-(2-fluoroethoxy)-4,6-dimethoxy-pyrimidin-2-yl]-7-(2-pyrimidyl)-1H-indole-3-sulfonamide] is 3.8-fold higher in IC50: 0.08 µM for the first, 0.307 µM for the second. The first is the more potent here.

Going from `COc1nc(NS(=O)(=O)c2c[nH]c3c(-c4ncccn4)c(Cl)ccc23)nc(OC)c1OC(F)F` [Example 23, 6-chloro-N-[5-(difluoromethoxy)-4,6-dimethoxy-pyrimidin-2-yl]-7-(2-pyrimidyl)-1H-indole-3-sulfonamide] to `COc1nc(NS(=O)(=O)c2c[nH]c3c(-c4ncccn4)c(F)ccc23)nc(OC)c1OC(F)F` [Example 29, N-[5-(difluoromethoxy)-4,6-dimethoxy-pyrimidin-2-yl]-6-fluoro-7-(2-pyrimidyl)-1H-indole-3-sulfonamide], the IC50 rises from 0.05 µM to 0.604 µM (12-fold).

`COc1nc(NS(=O)(=O)c2c[nH]c3c(-c4ncccn4)c(Cl)ccc23)nc(OC)c1C1CC1C#N` (centres unmarked) [Example 24, 6-chloro-N-[5-(2-cyanocyclopropyl)-4,6-dimethoxy-pyrimidin-2-yl]-7-(2-pyrimidyl)-1H-indole-3-sulfonamide] gave an IC50 of 0.061 µM.
